In ChEMBL document CHEMBL5728961, “Compounds useful for treating gastrointestinal tract disorders” (2022):

Key:
[1] = target: T1, Sodium/hydrogen exchanger 3 (Homo sapiens, UniProt P48764); test: Cell-Based Assay of NHE-3 Activity (Persistent Inhibition): The ability of compounds to inhibit human and rat NHE-3-mediated Na+ dependent H+ antiport after application and washout was measured using a modification of the pH sensitive dye method described above. PS120 fibroblasts stably expressing human NHE3 and NHERF2 were obtained from Mark Donowitz (Baltimore, Md.). Opossum kidney (OK) cells were obtained from the ATCC and propagated per their instructions. The rat NHE-3 gene was introduced into OK cells via electroporation, and cells were seeded into 96 well plates and grown overnight. Medium was aspirated from the wells, cells were washed once with NaCl-HEPES buffer (100 mM NaCl, 50 mM HEPES, 10 mM glucose, 5 mM KCl, 2 mM CaCl2, 1 mM MgCl2, pH 7.4), then overlayed with NaCl-HEPES buffer containing 0-30 μM test compound. After a 60 min incubation at room temperature, the test drug containing buffer was aspirated from the cells. Following aspiration, cells were washed once with NaCl-HEPES buffer without drug, then incubated for 30 min at 37° C. with NH4Cl-HEPES buffer (20 mM NH4Cl, 80 mM NaCl, 50 mM HEPES, 5 mM KCl, 2 mM CaCl2, 1 mM MgCl2, pH 7.4) containing 5 μM BCECF-AM. Cells were washed once with Ammonium free, Na+-free HEPES (100 mM choline, 50 mM HEPES, 10 mM glucose, 5 mM KCl, 2 mM CaCl2, 1 mM MgCl2, pH 7.4) and incubated in the same buffer for 10 minutes at room temperature to lower intracellular pH. NHE-3-mediated recovery of neutral intracellular pH was initiated ([…]) by addition of Na-HEPES buffer. […] Changes in intracellular pH were monitored using a FLIPR Tetra® (Molecular Devices, Sunnyvale, Calif.) by excitation at λex 439 to 505 nm, and measuring BCECF fluorescence at λem 538 nm. The initial rate of the fluorescence ratio change was used as a measure of NHE-mediated Na+/H+ activity, and reported as the change in fluorescence ratio per minute.
T1 sequence (P48764 whole entry): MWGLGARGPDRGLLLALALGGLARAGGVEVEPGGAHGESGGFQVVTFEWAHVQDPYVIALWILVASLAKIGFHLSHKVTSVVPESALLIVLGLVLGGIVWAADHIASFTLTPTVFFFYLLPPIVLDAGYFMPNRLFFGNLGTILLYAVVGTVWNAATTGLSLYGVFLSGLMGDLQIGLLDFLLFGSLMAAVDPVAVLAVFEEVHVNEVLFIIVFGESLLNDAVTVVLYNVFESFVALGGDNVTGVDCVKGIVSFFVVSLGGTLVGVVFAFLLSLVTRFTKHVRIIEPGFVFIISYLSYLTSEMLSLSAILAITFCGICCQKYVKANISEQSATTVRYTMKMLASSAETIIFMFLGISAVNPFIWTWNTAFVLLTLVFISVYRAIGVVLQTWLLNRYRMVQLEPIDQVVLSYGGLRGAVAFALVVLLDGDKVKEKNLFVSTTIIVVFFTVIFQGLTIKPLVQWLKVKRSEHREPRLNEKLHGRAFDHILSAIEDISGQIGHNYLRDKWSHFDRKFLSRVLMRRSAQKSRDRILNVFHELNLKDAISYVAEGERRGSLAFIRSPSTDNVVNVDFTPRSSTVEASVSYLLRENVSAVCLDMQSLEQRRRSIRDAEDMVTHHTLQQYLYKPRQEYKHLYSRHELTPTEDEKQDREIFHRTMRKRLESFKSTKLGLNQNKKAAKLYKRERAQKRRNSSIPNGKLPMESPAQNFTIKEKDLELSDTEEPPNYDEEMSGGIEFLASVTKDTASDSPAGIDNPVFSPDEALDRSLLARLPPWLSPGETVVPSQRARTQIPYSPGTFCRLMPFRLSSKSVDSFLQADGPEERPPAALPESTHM

[2] = target: T1, Sodium/hydrogen exchanger 3; test: Cell-Based Assay of NHE-3 Activity (Pre-Incubation Inhibition): Rat and human NHE-3-mediated Na+-dependent H+ antiport was measured using a modification of the pH sensitive dye method originally reported by Paradiso (Proc. Natl. Acad. Sci. USA. (1984) 81(23): 7436-7440). PS120 fibroblasts stably expressing human NHE3 and NHERF2 were obtained from Mark Donowitz (Baltimore, Md.). Opossum kidney (OK) cells were obtained from the ATCC and propagated per their instructions. The rat NHE-3 gene (GenBank M85300) was introduced into OK cells via electroporation, and cells were seeded into 96 well plates and grown overnight. Medium was aspirated from the wells then incubated for 30 min at 37° C. with NH4Cl-HEPES buffer (20 mM NH4Cl, 80 mM NaCl, 50 mM HEPES, 5 mM KCl, 2 mM CaCl2, 1 mM MgCl2, pH 7.4) containing 5 μM BCECF-AM. Cells were washed once with Ammonium free, Na+-free HEPES (100 mM choline, 50 mM HEPES, 10 mM glucose, 5 mM KCl, 2 mM CaCl2, 1 mM MgCl2, pH 7.4) and incubated in the same buffer for 10 minutes at room temperature to lower intracellular pH with 0-30 μM test compound. […] Changes in intracellular pH were monitored using a FLIPR Tetra® (Molecular Devices, Sunnyvale, Calif.) by excitation at λex 439 to 505 nm, and measuring BCECF fluorescence at λem 538 nm. The initial rate of the fluorescence ratio change was used as a measure of NHE-mediated Na+/H+ activity, and reported as the change in fluorescence ratio per minute.

Structure (SMILES)	IC50 [1]	IC50 [2]
Cc1cc(S(=O)(=O)N2CC[C@@H](COCCOCCNC(=O)NCCCCNC(=O)NCCOCCOC[C@@H]3CCN(S(=O)(=O)c4ccc(O[C@H]5c6cc(Cl)cc(C#N)c6C[C@@H]5N(C)C)c(C)c4)C3)C2)ccc1O[C@H]1c2cc(Cl)cc(C#N)c2C[C@@H]1N(C)C	< 100 nM	< 100 nM
CN(C)[C@H]1Cc2c(Cl)cc(Cl)cc2[C@@H]1Oc1ccc(S(=O)(=O)NCCCCCCCCNC(=O)NCCCCNC(=O)NCCCCCCCCNS(=O)(=O)c2ccc(O[C@H]3c4cc(Cl)cc(Cl)c4C[C@@H]3N(C)C)cc2)cc1	> 1000 nM	> 1000 nM
N[C@@H]1CCCN([C@H]2Cc3c(Cl)cc(Cl)cc3[C@@H]2Oc2ccc(S(=O)(=O)NCCCCCCn3cc(CNC(=O)NCCCCNC(=O)NCc4cn(CCCCCCNS(=O)(=O)c5ccc(O[C@H]6c7cc(Cl)cc(Cl)c7C[C@@H]6N6CCC[C@@H](N)C6)cc5)nn4)nn3)cc2)C1	< 100 nM	< 100 nM
O=C(NCCCCNC(=O)NCCOCCOCCNS(=O)(=O)c1ccc(O[C@H]2c3cc(Cl)cc(Cl)c3C[C@@H]2N2C3CCCC2CC3)cc1)NCCOCCOCCNS(=O)(=O)c1ccc(O[C@H]2c3cc(Cl)cc(Cl)c3C[C@@H]2N2C3CCCC2CC3)cc1	< 100 nM	< 100 nM
N[C@@H]1CCCN([C@H]2Cc3c(Cl)cc(Cl)cc3[C@@H]2Oc2ccc(S(=O)(=O)NCCOCCOCCNC(=O)NCCCCNC(=O)NCCOCCOCCNS(=O)(=O)c3ccc(O[C@H]4c5cc(Cl)cc(Cl)c5C[C@@H]4N4CCC[C@@H](N)C4)c(F)c3)cc2F)C1	< 100 nM	< 100 nM
Cc1cc(Cl)cc2c1C[C@H](N(C)C)[C@H]2Oc1ccc(S(=O)(=O)NCCOCCOCCNC(=O)NCCCCNC(=O)NCCOCCOCCNS(=O)(=O)c2ccc(O[C@H]3c4cc(Cl)cc(C)c4C[C@@H]3N(C)C)c(F)c2)cc1F	< 100 nM	< 100 nM
Cc1cc(S(=O)(=O)NCCCCCCCCNC(=O)NCCCCNC(=O)NCCCCCCCCNS(=O)(=O)c2ccc(O[C@H]3c4cc(Cl)cc(Cl)c4C[C@@H]3N(C)C)c(C)c2)ccc1O[C@H]1c2cc(Cl)cc(Cl)c2C[C@@H]1N(C)C	> 1000 nM	> 1000 nM
O=C(NCCCCNC(=O)NCCOCCN1CC[C@H](NS(=O)(=O)c2ccc(O[C@H]3c4cc(Cl)cc(Cl)c4C[C@@H]3N3CCNCC3)c(F)c2)C1)NCCOCCN1CC[C@H](NS(=O)(=O)c2ccc(O[C@H]3c4cc(Cl)cc(Cl)c4C[C@@H]3N3CCNCC3)c(F)c2)C1	< 100 nM	< 100 nM
Cc1cc(Cl)cc2c1C[C@H](N1CCNCC1)[C@H]2Oc1ccc(S(=O)(=O)NCCOCCOCCNC(=O)NCCCCNC(=O)NCCOCCOCCNS(=O)(=O)c2ccc(O[C@H]3c4cc(Cl)cc(C)c4C[C@@H]3N3CCNCC3)cc2)cc1	< 100 nM	< 100 nM
CN(C)[C@@H]1CCCN([C@H]2Cc3c(C#N)cc(Cl)cc3[C@@H]2Oc2ccc(S(=O)(=O)NCCOCCOCCNC(=O)NCCCCNC(=O)NCCOCCOCCNS(=O)(=O)c3ccc(O[C@H]4c5cc(Cl)cc(C#N)c5C[C@@H]4N4CCC[C@@H](N(C)C)C4)c(F)c3)cc2F)C1	> 1000 nM	> 1000 nM
Cc1cc(S(=O)(=O)NCCOCCOCCNC(=O)NCCCCNC(=O)NCCOCCOCCNS(=O)(=O)c2ccc(O[C@H]3c4cc(Cl)cc(C)c4C[C@@H]3N3CCC[C@@H](N)C3)c(C)c2)ccc1O[C@H]1c2cc(Cl)cc(C)c2C[C@@H]1N1CCC[C@@H](N)C1	< 100 nM	< 100 nM
Cc1cc(Cl)cc2c1C[C@H](N1CCC[C@@H](N)C1)[C@H]2Oc1ccc(S(=O)(=O)NCCOCCOCCNC(=O)NCCCCNC(=O)NCCOCCOCCNS(=O)(=O)c2ccc(O[C@H]3c4cc(Cl)cc(C)c4C[C@@H]3N3CCC[C@@H](N)C3)c(F)c2)cc1F	< 100 nM	< 100 nM
N[C@@H]1CCCN([C@H]2Cc3c(Cl)cc(Cl)cc3[C@@H]2Oc2c(F)cc(S(=O)(=O)NCCOCCOCCNC(=O)NCCCCNC(=O)NCCOCCOCCNS(=O)(=O)c3cc(F)c(O[C@H]4c5cc(Cl)cc(Cl)c5C[C@@H]4N4CCC[C@@H](N)C4)c(F)c3)cc2F)C1	< 100 nM	< 100 nM
Cc1cc(S(=O)(=O)NCCOCCOCCNC(=O)NCCCCNC(=O)NCCOCCOCCNS(=O)(=O)c2ccc(O[C@H]3c4cc(Cl)cc(C#N)c4C[C@@H]3N3CCC[C@@H](N)C3)c(C)c2)ccc1O[C@H]1c2cc(Cl)cc(C#N)c2C[C@@H]1N1CCC[C@@H](N)C1	> 1000 nM	> 1000 nM
Cc1cc(O[C@H]2c3cc(Cl)cc(Cl)c3C[C@@H]2N2CCC[C@@H](N)C2)c(F)cc1S(=O)(=O)NCCOCCOCCNC(=O)NCCCCNC(=O)NCCOCCOCCNS(=O)(=O)c1cc(F)c(O[C@H]2c3cc(Cl)cc(Cl)c3C[C@@H]2N2CCC[C@@H](N)C2)cc1C	< 100 nM	< 100 nM
Cc1cc(S(=O)(=O)N[C@@H]2CCN(CCOCCNC(=O)NCCCCNC(=O)NCCOCCN3CC[C@@H](NS(=O)(=O)c4ccc(O[C@H]5c6cc(Cl)cc(C#N)c6C[C@@H]5N(C)C)c(C)c4)C3)C2)ccc1O[C@H]1c2cc(Cl)cc(C#N)c2C[C@@H]1N(C)C	< 100 nM	< 100 nM
CN(C)[C@@H]1CCCN([C@H]2Cc3c(Cl)cc(Cl)cc3[C@@H]2Oc2ccc(S(=O)(=O)NCCOCCOCCNC(=O)NCCCCNC(=O)NCCOCCOCCNS(=O)(=O)c3ccc(O[C@H]4c5cc(Cl)cc(Cl)c5C[C@@H]4N4CCC[C@@H](N(C)C)C4)c(F)c3)cc2F)C1	< 100 nM	< 100 nM
Cc1cc(S(=O)(=O)NCCOCCOCCNC(=O)NCCCCNC(=O)NCCOCCOCCNS(=O)(=O)c2ccc(O[C@H]3c4cc(Cl)cc(Cl)c4C[C@@H]3N3CCC[C@@H](N(C)C)C3)c(C)c2)ccc1O[C@H]1c2cc(Cl)cc(Cl)c2C[C@@H]1N1CCC[C@@H](N(C)C)C1	< 100 nM	< 100 nM
Cc1cc(S(=O)(=O)NCCOCCOCCNC(=O)NCCCCNC(=O)NCCOCCOCCNS(=O)(=O)c2cc(C)c(O[C@H]3c4cc(Cl)cc(Cl)c4C[C@@H]3N3CCC[C@@H](N)C3)cc2F)c(F)cc1O[C@H]1c2cc(Cl)cc(Cl)c2C[C@@H]1N1CCC[C@@H](N)C1	< 100 nM	< 100 nM
CN(C)[C@H]1Cc2c(cc(Cl)cc2C(F)(F)F)[C@@H]1Oc1ccc(S(=O)(=O)NCCOCCOCCNC(=O)NCCCCNC(=O)NCCOCCOCCNS(=O)(=O)c2ccc(O[C@H]3c4cc(Cl)cc(C(F)(F)F)c4C[C@@H]3N(C)C)cc2)cc1	> 1000 nM	> 1000 nM
Cc1cc(Cl)cc2c1C[C@H](N1CCC[C@@H](N)C1)[C@H]2Oc1ccc(S(=O)(=O)NCCOCCOCCNC(=O)NCCCCNC(=O)NCCOCCOCCNS(=O)(=O)c2ccc(O[C@H]3c4cc(Cl)cc(C)c4C[C@@H]3N3CCC[C@@H](N)C3)cc2)cc1	< 100 nM	< 100 nM
CN(C)[C@H]1Cc2c(OC(F)(F)F)cc(Cl)cc2[C@@H]1Oc1ccc(S(=O)(=O)NCCOCCOCCNC(=O)NCCCCNC(=O)NCCOCCOCCNS(=O)(=O)c2ccc(O[C@H]3c4cc(Cl)cc(OC(F)(F)F)c4C[C@@H]3N(C)C)cc2)cc1	> 1000 nM	> 1000 nM
COc1cc(Cl)cc2c1C[C@H](N1CCC[C@@H](N)C1)[C@H]2Oc1ccc(S(=O)(=O)NCCOCCOCCNC(=O)NCCCCNC(=O)NCCOCCOCCNS(=O)(=O)c2ccc(O[C@H]3c4cc(Cl)cc(OC)c4C[C@@H]3N3CCC[C@@H](N)C3)cc2)cc1	< 100 nM	< 100 nM
N#Cc1cc(Cl)cc2c1C[C@H](N1CCC[C@@H](N)C1)[C@H]2Oc1ccc(S(=O)(=O)NCCOCCOCCNC(=O)NCCCCNC(=O)NCCOCCOCCNS(=O)(=O)c2ccc(O[C@H]3c4cc(Cl)cc(C#N)c4C[C@@H]3N3CCC[C@@H](N)C3)cc2)cc1	< 100 nM	< 100 nM
